From US11981658B2, “Substituted aminopyridine compounds as EGFR inhibitors” (YUHAN CORPORATION, priority 2021, dated 2024)
Where two headings read alike, the source gives them in different places.

Legend:
EGFR Del19/T790M/C797S = EGFR Del19/T790M/C797S (Homo sapiens, UniProt P00533, C797S/DEL746-750/T790M); assay: Biochemical EGFR kinase inhibition assay (Lance Ultra TR-FRET), triple mutant del19/T790M/C797S
Method: (§1) Biochemical EGFR kinase assays were conducted using Lance Ultra time-resolved fluorescence resonance energy transfer (TR-FRET) technology from Perkin-Elmer. Compounds of the invention were initially diluted to 20 mM in 100% DMSO for storage and made into kinase buffer solution to create a compound concentration ranging from 0.003 μM and 10 μM.
(§2) Each kinase reactions were incubated at room temperature for 1 hour and then stopped by the addition of 4 μL of stop solution (10 mM EDTA). The specific Europium-labeled-anti-phosphopeptide antibody (PerkinElmer, AD0069) diluted in LANCE detection buffer was then added to a final concentration of 2 nM. After 60 minutes incubation at room temperature the LANCE signal was measured on an EnVision Multilabel Reader (Perkin-Elmer). Excitation wavelength was set at 320 nm and emission monitored at 615 nm (donor) and 665 nm (acceptor). The IC50 values were determined using GraphPad prism software (GraphPad Software, Inc., San Diego, CA, USA).

EGFR L858R/T790M/C797S = EGFR L858R/T790M/C797S (Homo sapiens, UniProt P00533, C797S/L858R/T790M); assay: Biochemical EGFR kinase inhibition assay (Lance Ultra TR-FRET), triple mutant L858R/T790M/C797S
EGFR L858R/T790M/C797S, sequence (P00533 25-1210 T790M/C797S/L858R): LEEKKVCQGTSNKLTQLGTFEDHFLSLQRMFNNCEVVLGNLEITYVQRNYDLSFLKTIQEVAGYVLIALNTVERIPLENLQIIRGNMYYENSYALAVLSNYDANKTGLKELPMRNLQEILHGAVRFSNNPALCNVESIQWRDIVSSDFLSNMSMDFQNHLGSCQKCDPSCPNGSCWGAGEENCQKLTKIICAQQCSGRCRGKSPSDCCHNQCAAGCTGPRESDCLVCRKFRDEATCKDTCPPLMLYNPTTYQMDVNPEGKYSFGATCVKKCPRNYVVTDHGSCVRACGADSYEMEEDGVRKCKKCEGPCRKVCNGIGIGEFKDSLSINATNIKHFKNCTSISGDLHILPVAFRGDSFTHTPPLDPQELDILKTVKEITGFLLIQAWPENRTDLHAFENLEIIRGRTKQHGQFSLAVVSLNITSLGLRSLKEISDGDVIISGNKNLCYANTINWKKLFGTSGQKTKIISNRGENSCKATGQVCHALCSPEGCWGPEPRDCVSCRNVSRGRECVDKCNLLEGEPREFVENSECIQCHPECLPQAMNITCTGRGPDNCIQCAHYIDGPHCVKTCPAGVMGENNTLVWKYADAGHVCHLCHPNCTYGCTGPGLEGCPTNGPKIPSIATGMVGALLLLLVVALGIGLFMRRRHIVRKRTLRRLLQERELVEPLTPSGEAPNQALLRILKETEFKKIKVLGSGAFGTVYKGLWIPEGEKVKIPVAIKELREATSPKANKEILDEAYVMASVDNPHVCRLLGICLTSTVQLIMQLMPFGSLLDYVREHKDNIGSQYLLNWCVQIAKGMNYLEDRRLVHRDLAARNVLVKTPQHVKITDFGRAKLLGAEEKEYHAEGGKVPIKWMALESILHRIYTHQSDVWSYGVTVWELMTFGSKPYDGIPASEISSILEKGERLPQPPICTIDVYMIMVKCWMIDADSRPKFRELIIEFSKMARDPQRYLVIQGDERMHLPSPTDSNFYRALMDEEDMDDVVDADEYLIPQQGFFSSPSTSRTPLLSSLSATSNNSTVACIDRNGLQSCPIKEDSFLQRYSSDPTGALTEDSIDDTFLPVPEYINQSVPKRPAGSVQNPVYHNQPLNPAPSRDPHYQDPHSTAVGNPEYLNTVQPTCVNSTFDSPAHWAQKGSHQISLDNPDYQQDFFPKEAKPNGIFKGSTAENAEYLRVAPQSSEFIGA
Method: as §1, §2

EGFR Del19/C797S = EGFR Del19/C797S (Homo sapiens, UniProt P00533, C797S/DEL746-750); assay: Biochemical EGFR kinase inhibition assay (Lance Ultra TR-FRET), double mutant del19/C797S
EGFR Del19/C797S, sequence (P00533 with tags, fused parts or gaps DEL746-750/C797S): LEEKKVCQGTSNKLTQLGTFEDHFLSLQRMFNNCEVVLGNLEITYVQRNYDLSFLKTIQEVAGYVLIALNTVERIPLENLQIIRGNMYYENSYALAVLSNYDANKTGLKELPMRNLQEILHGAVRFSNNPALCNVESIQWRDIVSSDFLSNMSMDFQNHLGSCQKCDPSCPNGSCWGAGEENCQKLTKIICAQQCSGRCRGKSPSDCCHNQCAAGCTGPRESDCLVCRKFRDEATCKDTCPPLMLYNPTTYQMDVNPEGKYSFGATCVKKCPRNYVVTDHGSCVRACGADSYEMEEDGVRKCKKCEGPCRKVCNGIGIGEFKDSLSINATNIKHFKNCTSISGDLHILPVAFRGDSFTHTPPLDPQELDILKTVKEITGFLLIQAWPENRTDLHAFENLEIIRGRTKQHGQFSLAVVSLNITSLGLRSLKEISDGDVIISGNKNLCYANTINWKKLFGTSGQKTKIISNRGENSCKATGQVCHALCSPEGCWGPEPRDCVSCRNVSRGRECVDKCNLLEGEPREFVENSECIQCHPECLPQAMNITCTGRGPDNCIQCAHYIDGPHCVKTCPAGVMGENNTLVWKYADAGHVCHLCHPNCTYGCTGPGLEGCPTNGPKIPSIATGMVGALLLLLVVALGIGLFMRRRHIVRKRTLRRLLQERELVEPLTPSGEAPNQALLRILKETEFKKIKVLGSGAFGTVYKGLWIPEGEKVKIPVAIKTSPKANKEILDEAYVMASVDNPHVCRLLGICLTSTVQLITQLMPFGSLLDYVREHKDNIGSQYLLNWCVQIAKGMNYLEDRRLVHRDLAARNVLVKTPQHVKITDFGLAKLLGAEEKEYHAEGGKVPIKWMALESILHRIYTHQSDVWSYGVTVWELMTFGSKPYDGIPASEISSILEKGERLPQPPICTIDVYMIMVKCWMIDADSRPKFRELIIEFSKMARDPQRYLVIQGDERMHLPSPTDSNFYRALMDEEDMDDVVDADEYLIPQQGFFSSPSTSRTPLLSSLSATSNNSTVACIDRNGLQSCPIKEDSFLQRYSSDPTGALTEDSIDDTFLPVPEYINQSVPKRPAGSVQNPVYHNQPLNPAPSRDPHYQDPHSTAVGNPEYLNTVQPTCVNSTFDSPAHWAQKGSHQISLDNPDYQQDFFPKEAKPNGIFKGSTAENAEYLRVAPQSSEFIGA
Method: as §1, §2

EGFR L858R/C797S = EGFR L858R/C797S (Homo sapiens, UniProt P00533, C797S/L858R); assay: Biochemical EGFR kinase inhibition assay (Lance Ultra TR-FRET), double mutant L858R/C797S
EGFR L858R/C797S, sequence (P00533 25-1210 C797S/L858R): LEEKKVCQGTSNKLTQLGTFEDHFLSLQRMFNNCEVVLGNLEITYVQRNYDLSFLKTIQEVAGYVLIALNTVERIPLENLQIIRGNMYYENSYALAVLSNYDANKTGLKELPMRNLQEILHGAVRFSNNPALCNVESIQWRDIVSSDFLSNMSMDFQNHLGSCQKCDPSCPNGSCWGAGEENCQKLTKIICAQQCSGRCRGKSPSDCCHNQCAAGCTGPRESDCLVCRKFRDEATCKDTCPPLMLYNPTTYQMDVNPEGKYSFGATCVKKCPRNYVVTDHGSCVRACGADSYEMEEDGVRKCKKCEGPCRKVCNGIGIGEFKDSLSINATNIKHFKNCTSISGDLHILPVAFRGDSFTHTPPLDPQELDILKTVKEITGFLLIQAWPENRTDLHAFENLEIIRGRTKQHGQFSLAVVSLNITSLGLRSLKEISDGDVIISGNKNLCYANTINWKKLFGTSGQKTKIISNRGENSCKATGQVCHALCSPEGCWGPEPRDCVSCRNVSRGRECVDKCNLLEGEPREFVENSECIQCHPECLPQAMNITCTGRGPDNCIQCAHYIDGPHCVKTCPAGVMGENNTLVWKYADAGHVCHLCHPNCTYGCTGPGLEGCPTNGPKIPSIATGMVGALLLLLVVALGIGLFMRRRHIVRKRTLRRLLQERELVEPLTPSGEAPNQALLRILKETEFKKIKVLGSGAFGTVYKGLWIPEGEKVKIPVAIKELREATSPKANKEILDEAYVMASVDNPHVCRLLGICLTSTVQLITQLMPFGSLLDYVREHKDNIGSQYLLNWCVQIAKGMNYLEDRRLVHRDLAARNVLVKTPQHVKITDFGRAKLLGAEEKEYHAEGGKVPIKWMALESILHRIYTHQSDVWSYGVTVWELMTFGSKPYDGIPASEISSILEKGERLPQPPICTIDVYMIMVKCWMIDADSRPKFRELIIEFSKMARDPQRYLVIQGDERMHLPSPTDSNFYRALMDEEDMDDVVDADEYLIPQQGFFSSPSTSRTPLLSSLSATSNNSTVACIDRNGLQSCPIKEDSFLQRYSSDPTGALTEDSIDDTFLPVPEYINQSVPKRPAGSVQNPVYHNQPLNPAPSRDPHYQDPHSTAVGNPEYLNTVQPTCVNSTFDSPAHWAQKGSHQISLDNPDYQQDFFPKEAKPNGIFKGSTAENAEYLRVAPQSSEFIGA
Method: as §1, §2

EGFR wildtype (WT) = EGFR wildtype (WT) (Homo sapiens, UniProt P00533); assay: Biochemical EGFR kinase inhibition assay (Lance Ultra TR-FRET), wildtype
EGFR wildtype (WT), sequence (P00533 25-1210): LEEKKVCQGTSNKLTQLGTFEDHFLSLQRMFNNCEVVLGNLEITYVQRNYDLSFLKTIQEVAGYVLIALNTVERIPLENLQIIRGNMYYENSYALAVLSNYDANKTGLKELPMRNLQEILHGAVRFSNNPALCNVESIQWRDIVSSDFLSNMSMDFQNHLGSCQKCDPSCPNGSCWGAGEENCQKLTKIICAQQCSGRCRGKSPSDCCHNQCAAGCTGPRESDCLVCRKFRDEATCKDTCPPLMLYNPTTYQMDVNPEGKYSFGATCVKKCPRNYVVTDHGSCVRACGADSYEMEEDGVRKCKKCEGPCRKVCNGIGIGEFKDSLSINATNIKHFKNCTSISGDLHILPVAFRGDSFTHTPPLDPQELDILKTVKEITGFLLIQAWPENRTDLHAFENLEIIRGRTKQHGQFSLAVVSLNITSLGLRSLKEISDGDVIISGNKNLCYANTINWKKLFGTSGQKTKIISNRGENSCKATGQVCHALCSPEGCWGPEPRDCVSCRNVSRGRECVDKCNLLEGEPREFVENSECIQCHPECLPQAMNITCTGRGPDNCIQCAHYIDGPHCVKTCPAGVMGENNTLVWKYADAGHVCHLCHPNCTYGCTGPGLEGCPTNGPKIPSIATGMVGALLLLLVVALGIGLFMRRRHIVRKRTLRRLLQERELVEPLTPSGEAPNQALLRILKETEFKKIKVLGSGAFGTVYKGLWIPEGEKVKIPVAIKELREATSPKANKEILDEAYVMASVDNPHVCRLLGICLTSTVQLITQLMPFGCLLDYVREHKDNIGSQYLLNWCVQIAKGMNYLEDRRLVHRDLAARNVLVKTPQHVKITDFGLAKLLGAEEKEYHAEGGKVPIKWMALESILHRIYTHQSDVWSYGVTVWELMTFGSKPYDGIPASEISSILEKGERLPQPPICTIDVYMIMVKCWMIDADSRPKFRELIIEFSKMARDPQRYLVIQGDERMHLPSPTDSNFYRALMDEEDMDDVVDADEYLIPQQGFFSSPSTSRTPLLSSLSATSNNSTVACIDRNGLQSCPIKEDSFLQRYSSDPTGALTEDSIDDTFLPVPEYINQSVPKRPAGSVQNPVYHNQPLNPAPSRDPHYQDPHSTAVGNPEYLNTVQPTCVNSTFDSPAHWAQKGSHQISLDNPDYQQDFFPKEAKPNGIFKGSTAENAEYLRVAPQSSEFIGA
Method: as §1, §2

[1] = IC50 Del19/T790M/C797S (nM), 100 μM ATP
[2] = IC50 L858R/T790M/C797S (nM), 100 μM ATP
[3] = IC50 Del19/C797S (nM), 100 μM ATP
[4] = IC50 L858R/C797S (nM), 100 μM ATP
[5] = ATP at Km, read-out: IC50 Del19/T790M/C797S (nM), Km ATP
[6] = ATP at Km, read-out: IC50 L858R/T790M/C797S (nM), Km ATP
[7] = ATP at Km, read-out: IC50 Del19/C797S (nM), Km ATP
[8] = ATP at Km, read-out: IC50 L858R/C797S (nM), Km ATP
[9] = ATP at Km, read-out: IC50 WT (nM), Km ATP
[10] = Km ATP, read-out: IC50 Del19/T790M/C797S (nM), Km ATP
[11] = Km ATP, read-out: IC50 L858R/T790M/C797S (nM), Km ATP
[12] = Km ATP, read-out: IC50 Del19/C797S (nM), Km ATP
[13] = Km ATP, read-out: IC50 L858R/C797S (nM), Km ATP
[14] = Km ATP, read-out: IC50 WT (nM), Km ATP

SMILES	IC50 (EGFR Del19/T790M/C797S; [1])	IC50 (EGFR L858R/T790M/C797S; [2])	IC50 (EGFR Del19/C797S; [3])	IC50 (EGFR L858R/C797S; [4])	IC50 (EGFR wildtype (WT); IC50 WT (nM), 100 μM ATP)	IC50 (EGFR Del19/T790M/C797S; [5])	IC50 (EGFR L858R/T790M/C797S; [6])	IC50 (EGFR Del19/C797S; [7])	IC50 (EGFR L858R/C797S; [8])	IC50 (EGFR wildtype (WT); [9])	IC50 (EGFR Del19/T790M/C797S; [10])	IC50 (EGFR L858R/T790M/C797S; [11])	IC50 (EGFR Del19/C797S; [12])	IC50 (EGFR L858R/C797S; [13])	IC50 (EGFR wildtype (WT); [14])	IC50 (EGFR Del19/T790M/C797S; Km ATP, read-out: IC50 Del19/T790M/C797S (nM) Km ATP)	IC50 (EGFR L858R/T790M/C797S; Km ATP, read-out: IC50 L858R/T790M/C797S (nM) Km ATP)	IC50 (EGFR Del19/C797S; Km ATP, read-out: IC50 Del19/C797S (nM) Km ATP)	IC50 (EGFR L858R/C797S; Km ATP, read-out: IC50 L858R/C797S (nM) Km ATP)	IC50 (EGFR wildtype (WT); Km ATP, read-out: IC50 WT (nM) Km ATP)
CC1OCCC1C#Cc1cnc(Nc2ccnc(-c3cnn(S(=O)(=O)C4CC4)c3)n2)cc1NC1CCC(CO)CC1 (centres unmarked) [Example 430, ((1s,4s)-4-((2-((2-(1-(Cyclopropylsulfonyl)-1H-pyrazol-4-yl)pyrimidin-4-yl)amino)-5-((2-methyltetrahydrofuran-3-yl)ethynyl)pyridin-4-yl)amino)cyclohexyl)methanol]	1 nM	0.9 nM	3.8 nM	107 nM	7480 nM						0.6 nM	0.3 nM	1.3 nM	4.3 nM	6.9 nM					
CC1(CO)CCN(c2cc(Nc3ccnc(-c4cnn(S(=O)(=O)C5CC5)c4)n3)ncc2C#CC2CCN(S(=O)(=O)C3CC3)C2)CC1 (centres unmarked) [Example 395, (1-(2-((2-(1-(Cyclopropylsulfonyl)-1H-pyrazol-4-yl)pyrimidin-4-yl)amino)-5-((1-(cyclopropylsulfonyl)pyrrolidin-3-yl)ethynyl)pyridin-4-yl)-4-methylpiperidin-4-yl)methanol]	0.7 nM	1.3 nM	8.3 nM	51.2 nM	9220 nM						0.6 nM	0.3 nM	6.6 nM	2.7 nM	16.9 nM					
COC1(C)CCN(c2cc(Nc3ccnc(-c4cnn(S(=O)(=O)C5CC5)c4)n3)ncc2C#Cc2cccnc2)CC1 [Example 281, 2-(1-(Cyclopropylsulfonyl)-1H-pyrazol-4-yl)-N-(4-(4-methoxy-4-methylpiperidin-1-yl)-5-(pyridin-3-ylethynyl)pyridin-2-yl)pyrimidin-4-amine]	82.1 nM	22 nM	88.5 nM	287 nM	> 10000 nM	10.2 nM		17 nM	6.3 nM	192 nM										
CC1(CO)CCN(c2cc(Nc3ccnc(-c4cnn(S(=O)(=O)C5CC5)c4)n3)ncc2C#CC2CCO[C@H]2C(F)(F)F)CC1 (stereo partly drawn) [Example 421, (1-(2-((2-(1-(Cyclopropylsulfonyl)-1H-pyrazol-4-yl)pyrimidin-4-yl)amino)-5-(((2R)-2-(trifluoromethyl)tetrahydrofuran-3-yl)ethynyl)pyridin-4-yl)-4-methylpiperidin-4-yl)methanol]	1.8 nM	2.3 nM	5.8 nM	117 nM	> 10000 nM						1.5 nM	0.8 nM	4 nM	17.2 nM	35.1 nM					
O=S(=O)(C1CC1)n1cc(-c2nccc(Nc3cc(NC[C@H]4CC[C@H](O)CC4)c(C#Cc4cnn(C(F)F)c4)cn3)n2)cn1 [Example 307, (1r,4r)-4-(((2-((2-(1-(Cyclopropylsulfonyl)-1H-pyrazol-4-yl)pyrimidin-4-yl)amino)-5-((1-(difluoromethyl)-1H-pyrazol-4-yl)ethynyl)pyridin-4-yl)amino)methyl)cyclohexan-1-ol]	29.6 nM	35.1 nM	37.3 nM	44.2 nM	> 10000 nM	14.7 nM	0.3 nM	17.2 nM	21.3 nM	87.7 nM										
O=S(=O)(C1CC1)n1cc(-c2nccc(Nc3cc(N4[C@@H]5CC[C@H]4C[C@H](CO)C5)c(C#Cc4cnn(C(F)(F)F)c4)cn3)n2)cn1 [Example 332, ((1R,3s,5S)-8-(2-((2-(1-(Cyclopropylsulfonyl)-1H-pyrazol-4-yl)pyrimidin-4-yl)amino)-5-((1-(trifluoromethyl)-1H-pyrazol-4-yl)ethynyl)pyridin-4-yl)-8-azabicyclo[3.2.1]octan-3-yl)methanol]	23.9 nM	21.6 nM	1730 nM	> 10000 nM	> 10000 nM						18.9 nM	7.8 nM	800 nM	845 nM	801 nM					
CCc1cnc(C#Cc2cnc(Nc3ccnc(-c4cnn(S(=O)(=O)C5CC5)c4)n3)cc2N[C@@H]2CCC[C@H](O)C2)s1 [Example 168, (1S,3R)-3-((2-((2-(1-(Cyclopropylsulfonyl)-1H-pyrazol-4-yl)pyrimidin-4-yl)amino)-5-((5-ethylthiazol-2-yl)ethynyl)pyridin-4-yl)amino)cyclohexan-1-ol]	11.8 nM	71.2 nM	391 nM	8370 nM	> 10000 nM	11 nM	9.1 nM	67.9 nM	784 nM	6250 nM										
CC1(C#Cc2cnc(Nc3ccnc(-c4cnn(S(=O)(=O)C5CC5)c4)n3)cc2NC[C@H]2CC[C@H](O)CC2)CC1 [Example 403, (1r,4r)-4-(((2-((2-(1-(Cyclopropylsulfonyl)-1H-pyrazol-4-yl)pyrimidin-4-yl)amino)-5-((1-methylcyclopropyl)ethynyl)pyridin-4-yl)amino)methyl)cyclohexan-1-ol]	16.2 nM	50.3 nM	140 nM	1920 nM	> 10000 nM															

Molecules with a lower IC50 (EGFR Del19/T790M/C797S; [1]), results first:

IC50 (EGFR Del19/T790M/C797S; [1])	IC50 (EGFR L858R/T790M/C797S; [2])	IC50 (EGFR Del19/C797S; [3])	IC50 (EGFR L858R/C797S; [4])	IC50 (EGFR wildtype (WT); IC50 WT (nM), 100 μM ATP)	IC50 (EGFR Del19/T790M/C797S; [5])	IC50 (EGFR L858R/T790M/C797S; [6])	IC50 (EGFR Del19/C797S; [7])	IC50 (EGFR L858R/C797S; [8])	IC50 (EGFR wildtype (WT); [9])	IC50 (EGFR Del19/T790M/C797S; [10])	IC50 (EGFR L858R/T790M/C797S; [11])	IC50 (EGFR Del19/C797S; [12])	IC50 (EGFR L858R/C797S; [13])	IC50 (EGFR wildtype (WT); [14])	IC50 (EGFR Del19/T790M/C797S; Km ATP, read-out: IC50 Del19/T790M/C797S (nM) Km ATP)	IC50 (EGFR L858R/T790M/C797S; Km ATP, read-out: IC50 L858R/T790M/C797S (nM) Km ATP)	IC50 (EGFR Del19/C797S; Km ATP, read-out: IC50 Del19/C797S (nM) Km ATP)	IC50 (EGFR L858R/C797S; Km ATP, read-out: IC50 L858R/C797S (nM) Km ATP)	IC50 (EGFR wildtype (WT); Km ATP, read-out: IC50 WT (nM) Km ATP)	SMILES
0.3 nM	2.7 nM	3.3 nM	21.5 nM	> 10000 nM																CN(C)CC1(C)CCN(c2cc(Nc3ccnc(-c4cnn(S(=O)(=O)C5CC5)c4)n3)ncc2C#CC2CCN(C(=O)C(F)(F)F)C2)CC1 (centres unmarked) [Example 412, 1-(3-((6-((2-(1-(Cyclopropylsulfonyl)-1H-pyrazol-4-yl)pyrimidin-4-yl)amino)-4-(4-((dimethylamino)methyl)-4-methylpiperidin-1-yl)pyridin-3-yl)ethynyl)pyrrolidin-1-yl)-2,2,2-trifluoroethan-1-one]
0.4 nM	0.3 nM	2 nM	9 nM	4690 nM	0.3 nM	0.1 nM	1.2 nM	0.9 nM	10.7 nM											CN(C)C[C@H]1CC[C@@H](Nc2cc(Nc3ccnc(-c4cnn(S(=O)(=O)C5CC5)c4)n3)ncc2C#Cc2cnn(C3CC3)c2)CC1 [Example 313, 5-((1-Cyclopropyl-1H-pyrazol-4-yl)ethynyl)-N^2-(2-(1-(cyclopropylsulfonyl)-1H-pyrazol-4-yl)pyrimidin-4-yl)-N^4-((1s,4s)-4-((dimethylamino)methyl)cyclohexyl)pyridine-2,4-diamine]
0.2 nM	0.6 nM	3.1 nM	29.4 nM	7420 nM																CC1(O)CCN(c2cc(Nc3ccnc(-c4cnn(S(=O)(=O)C5CC5)c4)n3)ncc2C#CC2CCN(C(=O)C(F)(F)F)C2)CC1 (centres unmarked) [Example 410, 1-(3-((6-((2-(1-(Cyclopropylsulfonyl)-1H-pyrazol-4-yl)pyrimidin-4-yl)amino)-4-(4-hydroxy-4-methylpiperidin-1-yl)pyridin-3-yl)ethynyl)pyrrolidin-1-yl)-2,2,2-trifluoroethan-1-one]
0.4 nM	0.2 nM	0.4 nM	3.4 nM	853 nM											0.2 nM	0.1 nM	0.2 nM	0.3 nM	1.6 nM	CC1(CO)CCN(c2cc(Nc3ccnc(-c4cnn(S(=O)(=O)C5CC5)c4)n3)ncc2C#Cc2cnn3c2CNCC3)CC1 [Example 149, (1-(2-((2-(1-(Cyclopropylsulfonyl)-1H-pyrazol-4-yl)pyrimidin-4-yl)amino)-5-((4,5,6,7-tetrahydropyrazolo[1,5-a]pyrazin-3-yl)ethynyl)pyridin-4-yl)-4-methylpiperidin-4-yl)methanol]
